This is an account of results in ChEMBL document CHEMBL4732163 (Eur J Med Chem, 2021).

Structures are written as SMILES. A value given as a limit tells only on which side of the number the result lay.

A word on the IC50: it is the concentration needed to halve the response being measured. For orientation: CC50 means the concentration at which the toxic effect on the cells reaches its halfway point. As usually defined, the EC50 is the concentration that produces a half-maximal response. Read a low EC50 as a more potent agent.

Data set [1] deals with T1, Cyclin-G-associated kinase (Homo sapiens, UniProt O14976).
T1 sequence (O14976 whole entry): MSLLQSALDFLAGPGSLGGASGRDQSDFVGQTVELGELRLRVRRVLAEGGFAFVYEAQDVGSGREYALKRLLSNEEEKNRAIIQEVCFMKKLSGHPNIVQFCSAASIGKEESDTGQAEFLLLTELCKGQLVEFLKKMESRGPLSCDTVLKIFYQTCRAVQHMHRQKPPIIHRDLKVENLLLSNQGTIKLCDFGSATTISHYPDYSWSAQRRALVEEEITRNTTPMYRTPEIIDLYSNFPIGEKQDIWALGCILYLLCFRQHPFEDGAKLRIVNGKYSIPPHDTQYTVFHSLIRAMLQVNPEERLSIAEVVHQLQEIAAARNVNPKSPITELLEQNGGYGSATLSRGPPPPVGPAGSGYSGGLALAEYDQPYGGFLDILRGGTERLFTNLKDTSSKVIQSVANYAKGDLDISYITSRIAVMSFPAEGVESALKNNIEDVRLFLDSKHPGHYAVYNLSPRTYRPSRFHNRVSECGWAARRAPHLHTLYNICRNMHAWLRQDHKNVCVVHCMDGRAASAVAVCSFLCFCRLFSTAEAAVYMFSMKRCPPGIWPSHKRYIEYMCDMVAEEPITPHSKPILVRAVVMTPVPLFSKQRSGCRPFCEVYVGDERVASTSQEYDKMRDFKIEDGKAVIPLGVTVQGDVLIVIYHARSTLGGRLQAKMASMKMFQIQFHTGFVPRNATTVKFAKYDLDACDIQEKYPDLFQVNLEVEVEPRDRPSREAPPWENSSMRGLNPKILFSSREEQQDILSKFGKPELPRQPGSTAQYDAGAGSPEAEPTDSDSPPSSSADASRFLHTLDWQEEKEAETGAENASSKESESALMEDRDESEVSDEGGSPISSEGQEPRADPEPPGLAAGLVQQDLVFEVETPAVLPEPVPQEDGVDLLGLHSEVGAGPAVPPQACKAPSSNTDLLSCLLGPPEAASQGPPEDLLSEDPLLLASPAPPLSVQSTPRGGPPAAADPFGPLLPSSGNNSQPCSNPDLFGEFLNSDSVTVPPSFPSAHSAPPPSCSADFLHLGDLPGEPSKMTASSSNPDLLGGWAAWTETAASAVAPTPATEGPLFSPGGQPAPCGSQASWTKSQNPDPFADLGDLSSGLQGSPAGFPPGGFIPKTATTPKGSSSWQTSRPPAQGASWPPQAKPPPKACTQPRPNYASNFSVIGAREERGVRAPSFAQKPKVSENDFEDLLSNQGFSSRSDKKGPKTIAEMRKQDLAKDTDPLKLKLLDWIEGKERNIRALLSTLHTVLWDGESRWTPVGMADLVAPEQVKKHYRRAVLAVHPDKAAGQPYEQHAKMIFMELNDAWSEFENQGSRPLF
Briefly: Inhibition of tracer 222 binding to GAK (unknown origin) incubated for 1 hr by Lanthascreen TR-FRET assay. For orientation: TR-FRET usually uses a lanthanide donor and a delayed reading to cut background.

The nature of data set [2]: Cytotoxicity against DENV-2 New Guinea C infected human Huh-7 cells assessed as reduction in cell viability preincubated for 1 hr followed by viral infection and measured after 48 hrs by Alamar blue assay. In kind it is cell-based. The note with it: Huh-7 cells infected with DENV-2 New Guinea C, time 49 hrs. A general note: Resazurin is reduced to fluorescent resorufin, in cell work by metabolically active cells.

Data set [3] relates to dengue virus type 2. Put plainly: Antiviral activity against DENV-2 New Guinea C infected in human Huh-7 cells preincubated for 1 hr followed by viral infection and measured after 48 hrs by Renilla luciferase reporter gene assay. A general note: Reporter assays use an easily measured gene product as a stand-in for the process of interest.
Data set [4] deals with MAP kinase-interacting serine/threonine-protein kinase 2 (Homo sapiens) (UniProt Q9HBH9). Put plainly: Inhibition of wild-type human partial length MKNK2 (G63 to S388 residues) expressed in mammalian expression system assessed as residual activity at 10 uM by Kinomescan method relative to control.
Data set [5] concerns the target High affinity nerve growth factor receptor (Homo sapiens) (UniProt P04629). Put plainly: Inhibition of wild-type human partial length TRKA (G475 to G790 residues) expressed in mammalian expression system assessed as residual activity at 10 uM by Kinomescan method relative to control.
Data set [6] deals with Platelet-derived growth factor receptor alpha (Homo sapiens) (UniProt P16234). Briefly: Inhibition of wild-type human partial length PDGFRA (V575 to D1002 residues) expressed in mammalian expression system assessed as residual activity at 10 uM by Kinomescan method relative to control.
The target in data set [7] is Cyclin-dependent kinase 7 (Homo sapiens) (UniProt P50613). Briefly: Inhibition of wild-type human full length CDK7 (M1 to L344 residues) expressed in mammalian expression system assessed as residual activity at 10 uM by Kinomescan method relative to control.
Data set [8] addresses Receptor-type tyrosine-protein kinase FLT3 (Homo sapiens) (UniProt P36888). Put plainly: Inhibition of wild-type human partial length FLT3 (V592 to Y969 residues) expressed in bacterial expression system assessed as residual activity at 10 uM by Kinomescan method relative to control.
The target of data set [9] is Platelet-derived growth factor receptor beta (Homo sapiens) (UniProt P09619). Put plainly: Inhibition of wild-type human partial length PDGFRB (V582 to Y1009 residues) expressed in bacterial expression system assessed as residual activity at 10 uM by Kinomescan method relative to control.
Data set [10] concerns the target Mast/stem cell growth factor receptor Kit (Homo sapiens) (UniProt P10721). Briefly: Inhibition of wild-type human partial length KIT (I571 to D952 residues) expressed in bacterial expression system assessed as residual activity at 10 uM by Kinomescan method relative to control.

Platelet-derived growth factor receptor beta (Homo sapiens), sequence (P09619 whole entry, the tested form may be a part): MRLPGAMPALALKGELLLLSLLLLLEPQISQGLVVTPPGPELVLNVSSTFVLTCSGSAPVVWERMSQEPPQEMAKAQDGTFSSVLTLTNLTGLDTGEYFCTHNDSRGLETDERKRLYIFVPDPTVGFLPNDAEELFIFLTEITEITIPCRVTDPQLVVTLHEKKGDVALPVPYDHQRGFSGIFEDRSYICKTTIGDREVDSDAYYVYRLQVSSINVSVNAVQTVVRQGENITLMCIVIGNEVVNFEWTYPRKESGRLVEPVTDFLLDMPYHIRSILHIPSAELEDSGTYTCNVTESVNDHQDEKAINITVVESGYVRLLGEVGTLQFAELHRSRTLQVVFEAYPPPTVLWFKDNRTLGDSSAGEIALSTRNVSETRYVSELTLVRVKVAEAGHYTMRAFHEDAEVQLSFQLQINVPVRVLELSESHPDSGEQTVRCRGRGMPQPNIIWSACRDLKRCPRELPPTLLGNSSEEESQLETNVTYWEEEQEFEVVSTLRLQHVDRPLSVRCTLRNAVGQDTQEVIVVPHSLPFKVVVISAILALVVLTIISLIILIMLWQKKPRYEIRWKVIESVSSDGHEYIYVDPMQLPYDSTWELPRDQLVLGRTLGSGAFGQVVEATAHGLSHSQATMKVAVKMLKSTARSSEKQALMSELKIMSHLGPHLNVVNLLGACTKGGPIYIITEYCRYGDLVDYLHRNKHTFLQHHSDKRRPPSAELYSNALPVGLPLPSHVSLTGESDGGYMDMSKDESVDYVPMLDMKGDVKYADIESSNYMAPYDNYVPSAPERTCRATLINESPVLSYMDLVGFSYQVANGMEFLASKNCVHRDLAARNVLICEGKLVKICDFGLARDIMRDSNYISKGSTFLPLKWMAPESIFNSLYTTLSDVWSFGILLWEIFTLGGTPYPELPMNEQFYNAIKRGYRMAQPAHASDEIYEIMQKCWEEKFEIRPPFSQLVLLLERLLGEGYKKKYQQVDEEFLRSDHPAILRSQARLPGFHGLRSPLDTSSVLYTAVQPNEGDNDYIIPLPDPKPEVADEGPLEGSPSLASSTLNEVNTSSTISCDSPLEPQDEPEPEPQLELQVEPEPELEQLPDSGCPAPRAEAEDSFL
MAP kinase-interacting serine/threonine-protein kinase 2 (Homo sapiens), sequence (Q9HBH9 whole entry, looked up, the tested form may be a part): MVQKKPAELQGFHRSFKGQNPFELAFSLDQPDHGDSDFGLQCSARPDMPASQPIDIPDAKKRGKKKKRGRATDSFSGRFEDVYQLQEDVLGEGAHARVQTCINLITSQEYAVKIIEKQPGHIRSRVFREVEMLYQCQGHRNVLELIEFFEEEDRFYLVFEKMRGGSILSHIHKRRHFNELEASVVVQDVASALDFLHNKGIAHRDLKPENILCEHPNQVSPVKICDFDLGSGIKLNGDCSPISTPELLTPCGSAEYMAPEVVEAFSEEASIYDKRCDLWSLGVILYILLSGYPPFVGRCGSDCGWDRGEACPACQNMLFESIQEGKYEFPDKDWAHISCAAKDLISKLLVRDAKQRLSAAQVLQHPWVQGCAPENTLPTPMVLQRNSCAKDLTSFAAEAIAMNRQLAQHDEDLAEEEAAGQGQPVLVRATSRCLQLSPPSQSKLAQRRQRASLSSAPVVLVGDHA
Cyclin-dependent kinase 7 (Homo sapiens), sequence (P50613 whole entry, the tested form may be a part): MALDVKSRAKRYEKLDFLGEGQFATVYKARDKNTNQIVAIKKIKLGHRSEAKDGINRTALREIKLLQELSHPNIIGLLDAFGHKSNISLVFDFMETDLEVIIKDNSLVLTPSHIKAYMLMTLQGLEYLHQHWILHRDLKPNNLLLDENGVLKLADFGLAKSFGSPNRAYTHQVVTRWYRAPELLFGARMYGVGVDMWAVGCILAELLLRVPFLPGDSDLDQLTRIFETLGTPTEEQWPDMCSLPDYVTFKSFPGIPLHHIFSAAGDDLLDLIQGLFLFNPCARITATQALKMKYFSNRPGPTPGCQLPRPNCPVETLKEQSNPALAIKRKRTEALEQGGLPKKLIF
Receptor-type tyrosine-protein kinase FLT3 (Homo sapiens), sequence (P36888 whole entry, the tested form may be a part): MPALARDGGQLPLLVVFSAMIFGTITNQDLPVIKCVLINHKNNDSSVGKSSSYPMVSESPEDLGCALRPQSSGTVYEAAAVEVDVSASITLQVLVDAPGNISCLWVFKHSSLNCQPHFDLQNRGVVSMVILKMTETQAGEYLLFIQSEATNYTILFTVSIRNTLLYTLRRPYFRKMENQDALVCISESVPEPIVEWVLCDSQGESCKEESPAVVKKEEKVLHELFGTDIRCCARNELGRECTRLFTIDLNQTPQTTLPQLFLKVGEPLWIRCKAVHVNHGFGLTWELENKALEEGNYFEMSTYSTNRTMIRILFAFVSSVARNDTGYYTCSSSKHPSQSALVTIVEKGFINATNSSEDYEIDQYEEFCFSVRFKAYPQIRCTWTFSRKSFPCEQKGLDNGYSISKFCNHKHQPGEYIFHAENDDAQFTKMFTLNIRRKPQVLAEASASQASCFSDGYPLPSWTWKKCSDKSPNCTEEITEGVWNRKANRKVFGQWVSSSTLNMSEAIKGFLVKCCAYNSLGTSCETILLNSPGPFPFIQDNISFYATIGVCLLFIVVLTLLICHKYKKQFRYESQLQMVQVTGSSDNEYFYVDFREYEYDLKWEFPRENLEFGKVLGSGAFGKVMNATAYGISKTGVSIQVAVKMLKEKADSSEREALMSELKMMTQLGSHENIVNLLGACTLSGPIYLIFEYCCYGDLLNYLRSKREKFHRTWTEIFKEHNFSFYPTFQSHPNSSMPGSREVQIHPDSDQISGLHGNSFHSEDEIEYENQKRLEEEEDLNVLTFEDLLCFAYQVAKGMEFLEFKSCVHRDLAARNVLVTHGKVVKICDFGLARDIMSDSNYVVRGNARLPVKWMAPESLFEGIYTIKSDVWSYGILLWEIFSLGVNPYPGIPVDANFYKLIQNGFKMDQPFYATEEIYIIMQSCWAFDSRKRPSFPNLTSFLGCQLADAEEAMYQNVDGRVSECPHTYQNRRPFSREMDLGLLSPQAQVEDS
Mast/stem cell growth factor receptor Kit (Homo sapiens), sequence (P10721 whole entry, the tested form may be a part): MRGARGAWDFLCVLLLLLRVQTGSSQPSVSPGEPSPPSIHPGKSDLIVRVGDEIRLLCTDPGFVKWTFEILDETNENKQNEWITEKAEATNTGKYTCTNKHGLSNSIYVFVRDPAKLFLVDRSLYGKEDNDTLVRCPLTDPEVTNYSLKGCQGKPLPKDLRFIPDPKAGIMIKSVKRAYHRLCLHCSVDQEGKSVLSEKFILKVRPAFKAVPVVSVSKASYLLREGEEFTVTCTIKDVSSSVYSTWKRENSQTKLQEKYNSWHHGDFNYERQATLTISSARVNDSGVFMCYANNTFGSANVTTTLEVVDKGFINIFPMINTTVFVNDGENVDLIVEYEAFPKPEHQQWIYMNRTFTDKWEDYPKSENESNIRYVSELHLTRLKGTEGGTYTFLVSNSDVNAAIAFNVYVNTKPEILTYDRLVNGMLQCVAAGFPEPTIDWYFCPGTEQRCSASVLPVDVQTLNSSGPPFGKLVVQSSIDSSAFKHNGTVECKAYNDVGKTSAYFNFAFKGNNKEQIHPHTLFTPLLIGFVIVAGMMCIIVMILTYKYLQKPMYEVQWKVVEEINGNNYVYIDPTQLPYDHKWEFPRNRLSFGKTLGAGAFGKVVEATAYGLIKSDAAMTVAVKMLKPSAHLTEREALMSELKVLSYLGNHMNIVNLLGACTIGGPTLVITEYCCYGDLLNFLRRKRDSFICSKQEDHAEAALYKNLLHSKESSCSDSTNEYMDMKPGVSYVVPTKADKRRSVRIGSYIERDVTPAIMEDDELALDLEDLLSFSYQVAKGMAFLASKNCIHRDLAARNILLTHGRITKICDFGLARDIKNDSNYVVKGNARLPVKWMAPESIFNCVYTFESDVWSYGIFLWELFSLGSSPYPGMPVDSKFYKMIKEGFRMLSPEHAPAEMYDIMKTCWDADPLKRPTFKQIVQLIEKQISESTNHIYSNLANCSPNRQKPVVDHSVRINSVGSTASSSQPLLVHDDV
Platelet-derived growth factor receptor alpha (Homo sapiens), sequence (P16234 whole entry, the tested form may be a part): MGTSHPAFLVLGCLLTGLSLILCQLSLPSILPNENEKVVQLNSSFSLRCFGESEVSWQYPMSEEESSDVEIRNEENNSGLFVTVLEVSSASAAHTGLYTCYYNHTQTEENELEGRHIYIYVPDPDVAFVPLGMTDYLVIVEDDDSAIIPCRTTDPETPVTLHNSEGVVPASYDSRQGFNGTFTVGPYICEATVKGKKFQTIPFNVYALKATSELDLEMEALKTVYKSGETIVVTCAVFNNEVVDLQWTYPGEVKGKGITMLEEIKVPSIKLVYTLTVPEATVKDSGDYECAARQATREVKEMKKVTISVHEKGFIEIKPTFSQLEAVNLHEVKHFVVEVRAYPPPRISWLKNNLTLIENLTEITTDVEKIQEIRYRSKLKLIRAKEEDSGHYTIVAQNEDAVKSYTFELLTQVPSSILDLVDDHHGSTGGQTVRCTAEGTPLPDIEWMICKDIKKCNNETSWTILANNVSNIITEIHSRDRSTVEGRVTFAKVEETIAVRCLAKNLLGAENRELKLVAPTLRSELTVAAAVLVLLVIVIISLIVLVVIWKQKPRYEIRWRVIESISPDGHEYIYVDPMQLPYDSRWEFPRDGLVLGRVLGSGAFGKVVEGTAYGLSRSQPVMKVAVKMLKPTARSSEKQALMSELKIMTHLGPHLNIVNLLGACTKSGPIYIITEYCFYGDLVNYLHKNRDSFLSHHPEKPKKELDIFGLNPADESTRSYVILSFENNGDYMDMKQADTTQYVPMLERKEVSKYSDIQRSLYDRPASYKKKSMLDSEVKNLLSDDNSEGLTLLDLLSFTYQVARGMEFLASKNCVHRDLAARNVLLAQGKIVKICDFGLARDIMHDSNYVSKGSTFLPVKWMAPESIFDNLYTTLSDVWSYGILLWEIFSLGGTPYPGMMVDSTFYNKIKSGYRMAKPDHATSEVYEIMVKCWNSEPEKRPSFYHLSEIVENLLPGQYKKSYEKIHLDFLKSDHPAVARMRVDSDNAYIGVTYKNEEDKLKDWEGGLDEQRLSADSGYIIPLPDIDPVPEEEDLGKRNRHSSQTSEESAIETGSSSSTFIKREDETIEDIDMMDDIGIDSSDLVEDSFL

Compound `COc1cc(-c2cnc3c(N4CCC[C@@H](CNC(=O)C5CC5)C4)snc3c2)ccc1N` displayed an IC50 in data set [1] of 0.36 µM.
Turning to `COc1cc(-c2cnc3c(N4C[C@@H](C)O[C@@H](C)C4)snc3c2)ccc1N`, the CC50 at 48 h in data set [2] is over 20 µM. This compound displayed an EC50 in data set [3] of 0.96 µM.
In the case of `COc1cc(-c2cnc3c(N4CCCC(CNC(=O)C5CCCC5)C4)snc3c2)ccc1N` (stereo not drawn), the CC50 at 48 h in [2] is over 20 µM. In data set [3], this compound returned an EC50 of 2.6 µM.
As for `COc1cc(-c2cnc3c(-c4cccc(NC(=O)N5CCCC5)c4)snc3c2)ccc1N`, the CC50 at 48 h in data set [2] was over 20 µM. The same compound returned an EC50 in data set [3] of 6 µM.
With `COc1cc(-c2cnc3c(N4CCOCC4)snc3c2)ccc1N`, the IC50 in data set [1] was found to be 0.051 µM.
For the compound `COc1cc(-c2cnc3c(-c4cccc(NC(=O)C5CCCC5)c4)snc3c2)ccc1N`, the 50% cytotoxic concentration (CC50) at 48 h in data set [2] is 13 µM. The compound also gave a concentration for a half-maximal effect (EC50) in data set [3] of 1.8 µM.
On to `CCC(=O)Nc1cccc(-c2snc3cc(-c4ccc(N)c(OC)c4)cnc23)c1`, for which, in [2], the half-maximal cytotoxic concentration (CC50) at 48 h was determined as 9.9 µM. In addition, the concentration for a half-maximal effect (EC50) in data set [3] was 1.9 µM.
As to `COc1cc(-c2cnc3c(N4CCCC(CNC(=O)N5CCCC5)C4)snc3c2)ccc1N` (stereo not drawn), the CC50 at 48 h in data set [2] is over 20 µM. In data set [3], this compound gave an EC50 of 4.1 µM.
As to `COc1cc(-c2cnc3c(-c4cccc(NC(=O)N5CCOCC5)c4)snc3c2)ccc1N`, the CC50 at 48 h in data set [2] was over 20 µM. Also, a half-maximal effect in data set [3] (EC50) was put at 7.9 µM.
With `COc1cc(-c2cnc3c(-c4cccc(NC(=O)C(C)C)c4)snc3c2)ccc1N`, the half-maximal cytotoxic concentration (CC50) at 48 h in data set [2] was found to be 14 µM. The half-maximal effective concentration (EC50) in [3] worked out at 3.8 µM.
For `C#Cc1cccc(Nc2ncnc3cc(OCCOC)c(OCCOC)cc23)c1` [ERLOTINIB], in data set [2], the cytotoxic concentration (CC50) at 48 h was over 20 µM. In addition, in data set [3], the EC50 stood at 12 µM.
As for `COc1cc(-c2cnc3c(N4CCCC(CNC(=O)C5CC5)C4)snc3c2)ccc1N` (stereo not drawn), the CC50 at 48 h in data set [2] was over 20 µM. The IC50 in [1] stood at 0.014 µM. In data set [3], the 50% effective concentration (EC50) was found to be 4 µM.
For the compound `COc1cc(-c2cnc3c(N4CCCC(CNC(=O)c5ccccc5)C4)snc3c2)ccc1N` (stereo not drawn), in data set [2], the CC50 at 48 h was over 20 µM. The same compound displayed a 50% effective concentration (EC50) in data set [3] of 3.9 µM.
In the same order, the values of `COc1cc(-c2cnc3c(-c4cccc(NC(=O)C5CC5)c4)snc3c2)ccc1N` are 15 µM and 3.6 µM.
As to `COc1cc(-c2cnc3c(N4CCC[C@H](CNC(=O)C5CC5)C4)snc3c2)ccc1N`, the CC50 at 48 h in data set [2] is over 20 µM. This compound also displayed a 50% inhibitory concentration (IC50) in [1] of 0.013 µM. The same compound displayed an EC50 in data set [3] of 7.5 µM. Moreover, the Activity in [4], in data set [5], in data set [6], in data set [7], in [8] and in data set [9] was under 10% each time. Also, in [10], the Activity was under 10%.
The compound `CCC(=O)Nc1ccc(-c2snc3cc(-c4ccc(N)c(OC)c4)cnc23)cc1` yielded a half-maximal inhibitory concentration (IC50) in [1] of over 1.1 µM.
